According to ChEMBL document CHEMBL6134837, “Synergistic Cancer Therapy: An NIR-Activated Methylene Blue-Nitrogen Mustard Prodrug for Combined Chemotherapy and Photodynamic Therapy” (J Med Chem, 2025):
Calls of active or inactive are those of the source. The rule behind the calls is not given here.

What was measured:
[1] = Photoactivation of the compound assessed as release of methylene blue at 10 uM measured after 21 mins under 660 nm laser irradiation; conditions: 0.35 h
B16-F10 [2] = test: In vivo antitumor activity against mouse B16-F10 cells transplanted in BALB/c mouse model assessed as inhibition of tumor cells in tumor slice at 200 uM administered via intratumoural injection followed by irradiated with 660 nm laser irradiation measured for 7 days by H and E staining based analysis; assay type: functional, organism-based; conditions: route it(Intratumoral), time 7.0 day
[3] = Toxicity in BALB/c mouse transplanted with mouse B16-F10 cells assessed as spleen damage measured at 200 uM administered via intratumoural injection measured after 7 days by H and E staining based analysis; assay type: tissue-based; conditions: in vivo, other, 168 h, route it(Intratumoral), time 7 day
[4] = Induction of ROS generation in DCFH solution assessed as increase in fluorescent intensity measured under laser irradiation 660 nm for continuous 9 secs; assay type: functional; conditions: time 9.0 sec
[5] = Induction of ROS generation assessed as increase in singlet oxygen production using pre-irradiated compound by measuring reduction in ABDA absorption at 378 nm measured for 90 secs; assay type: functional; parameters: scale not given: the % may be the effect or the level left; conditions: time 90.0 sec
[6] = Stability of the compound measured after 7 days under dark condition; assay type: physicochemical; conditions: 168 h; time 7 day
B16-F10 [7] = test: Cytotoxicity against mouse B16-F10 cells assessed as decrease in green fluorescence at 1 to 10 uM measured after cells irradiated with 100 mW/cm^2, 660 nm light irradiation for 15 mins by Calcein-AM/PI staining based photodynamic therapy (PDT) assay; assay type: functional, cell-based; conditions: dose 1-10 µM
B16-F10 [8] = test: Induction of DNA damage in mouse B16-F10 cells assessed as green fluorescence in nuclei measured in absence light at 10 uM by gamma-H2AX based assay; assay type: functional, cell-based
[9] = Induction of hydroxyl radicals generation after irradiation by coumarin-3-carboxylic acid (3-CCA) assay; assay type: functional
B16-F10 [10] = test: Induction of ROS generation in mouse B16-F10 cells assessed as fluorescence intensity at 10 uM measured co-incubated with DCFH-DA followed by irradiated for 3 to 15 mins; assay type: functional, cell-based; conditions: time 3-15 min
B16-F10 [11] = test: In vivo antitumor activity against mouse B16-F10 cells transplanted in BALB/c mouse model assessed as tumor growth inhibition at 200 uM administered via intratumoural injection followed by irradiated with 660 nm laser irradiation measured for 7 days; assay type: functional, organism-based; conditions: route it(Intratumoral), time 7.0 day
[12] = Hemolysis in healthy mouse RBC assessed as hemolysis rate at 1 to 256 uM measured after 2 hrs incubation by microplate reader; assay type: toxicity, cell-based, Erythrocyte; conditions: mouse red blood cells, dose 1-256 µM, read-out: Activity
[13] = Photoactivation of the compound assessed as fluorescence changes at 10 uM measured after 21 mins under 660 nm laser irradiation relative to under dark condition; conditions: 0.35 h
B16-F10 [14] = test: Induction of apoptosis in mouse B16-F10 cells assessed as viable cells at 10 uM measured after 8 hrs by annexin VFITC (AV)/propidium iodide (PI) based flow cytometry (reference value: 92.2%); assay type: functional; conditions: read-out: Activity
[15] = Toxicity in BALB/c mouse transplanted with mouse B16-F10 cells assessed as heart damage measured at 200 uM administered via intratumoural injection measured after 7 days by H and E staining based analysis; assay type: tissue-based; conditions: in vivo, other, 168 h, route it(Intratumoral), time 7 day
[16] = Induction of ROS generation assessed as increase in singlet oxygen production by measuring reduction in ABDA absorption; assay type: functional
B16-F10 [17] = test: Cytotoxicity against mouse B16-F10 cells assessed as cell viability at 10 uM measured absence of irradiation by Calcein-AM/PI staining based assay; assay type: toxicity; conditions: b16-f10, 10 µM
B16-F10 [18] = test: In vivo antitumor activity against mouse B16-F10 cells transplanted in BALB/c mouse model assessed as tumor growth inhibition at 200 uM administered via intratumoural injection followed by irradiated with 660 nm laser irradiation measured on day 1; assay type: functional, organism-based; conditions: route it(Intratumoral), time 1.0 day
B16-F10 [19] = test: Induction of apoptosis in mouse B16-F10 cells assessed as late apoptotic cells at 10 uM measured after 8 hrs by annexin VFITC (AV)/propidium iodide (PI) based flow cytometry (reference value: 5.20%); assay type: functional
B16-F10 [20] = test: Induction of DNA damage in mouse B16-F10 cells assessed as green fluorescence in nuclei at 10 uM measured after irradiation with […] light by gamma-H2AX based assay; assay type: functional, cell-based
B16-F10 [21] = test: Induction of apoptosis in mouse B16-F10 cells assessed as viable cells at 10 uM measured after 8 hrs followed by irradiated (100 mW/cm^2) for 15 mins by annexin VFITC (AV)/propidium iodide (PI) based flow cytometry (reference value: 92.2%); assay type: functional; conditions: B16-F10, light or radiation study, read-out: Activity
B16-F10 [22] = test: Induction of DNA damage in mouse B16-F10 cells assessed as condensed chromatin measured after irradiation with […] light at 10 uM by Hoechst 33342 staining based assay; assay type: functional, cell-based
B16-F10 [23] = test: Induction of apoptosis in mouse B16-F10 cells assessed as necrotic cells at 10 uM measured after 8 hrs by annexin VFITC (AV)/propidium iodide (PI) based flow cytometry (reference value: 1.61%); assay type: functional
B16-F10 [24] = test: Cytotoxicity against mouse B16-F10 cells assessed as cell viability at 1 to 10 uM measured after 48 hrs incubation under dark by MTT assay; assay type: toxicity, cell-based; conditions: b16-f10, 48 h, dose 1-10 µM
B16-F10 [25] = test: Induction of apoptosis in mouse B16-F10 cells assessed as necrotic cells at 10 uM measured after 8 hrs followed by irradiated (100 mW/cm^2) for 15 mins by annexin VFITC (AV)/propidium iodide (PI) based flow cytometry (reference value: 1.61%); assay type: functional
[26] = Toxicity in BALB/c mouse transplanted with mouse B16-F10 cells assessed as lung damage measured at 200 uM administered via intratumoural injection measured after 7 days by H and E staining based analysis; assay type: tissue-based; conditions: in vivo, other, 168 h, route it(Intratumoral), time 7 day
[27] = Photoactivation of the compound assessed as release of methylene blue by measuring photolysis half-life at 10 uM under 660 nm laser irradiation
[28] = Induction of ROS generation in DCFH solution assessed as increase in fluorescent intensity using 525 nm pre-irradiated compound; assay type: functional
[29] = Induction of ROS generation assessed as superoxide anion production by measuring increase in fluorescent intensity of DHR123 using 526 nm (using non pre-irradiated condition); assay type: functional
B16-F10 [30] = test: Cytotoxicity against mouse B16-F10 cells assessed as increase in dead cells by measuring red fluorescence at 10 uM measured after cells irradiated with 100 mW/cm^2, 660 nm light irradiation for 3 to 15 mins by Calcein-AM/PI staining based photodynamic therapy (PDT) assay; assay type: functional, cell-based; conditions: time 3-15 min
[31] = Induction of ROS generation in DCFH solution assessed as fold increase in fluorescent intensity using 525 nm pre-irradiated compound relative to non-illuminated condition; assay type: functional
[32] = Toxicity in BALB/c mouse transplanted with mouse B16-F10 cells assessed as body weight change measured at 200 uM administered via intratumoural injection measured after 7 days; conditions: in vivo, other, 168 h, route it(Intratumoral), time 7 day
B16-F10 [33] = test: Induction of apoptosis in mouse B16-F10 cells assessed as late apoptotic cells at 10 uM measured after 8 hrs followed by irradiated (100 mW/cm^2) for 15 mins by annexin VFITC (AV)/propidium iodide (PI) based flow cytometry (reference value: 5.20%); assay type: functional
B16-F10 [34] = test: Induction of ROS generation in mouse B16-F10 cells assessed as increase in intracellular singlet oxygen by measuring […] fluorescence in nucleus at 10 uM measured co-incubated with SOSG followed by irradiated for 3 to 15 mins; assay type: functional, cell-based; conditions: time 3-15 min
B16-F10 [35] = test: Cytotoxicity against mouse B16-F10 cells assessed as increase in dead cells by measuring red fluorescence at 10 uM measured after cells irradiated with 100 mW/cm^2, 660 nm light irradiation for 15 mins by Calcein-AM/PI staining based photodynamic therapy (PDT) assay; assay type: functional, cell-based
B16-F10 [36] = test: Cytotoxicity against mouse B16-F10 cells assessed as cell viability measured at 10 uM after cells irradiated with 100 mW/cm^2, 660 nm light irradiation for 15 mins followed by measured after 48 hrs incubation by MTT assay relative to control; assay type: functional; conditions: B16-F10, light or radiation study, read-out: Activity
[37] = Induction of hydroxyl radicals generation before irradiation by coumarin-3-carboxylic acid (3-CCA) assay; assay type: functional
B16-F10 [38] = test: Induction of apoptosis in mouse B16-F10 cells assessed as early apoptotic cells at 10 uM measured after 8 hrs by annexin VFITC (AV)/propidium iodide (PI) based flow cytometry (reference value: 1.02%); assay type: functional
B16-F10 [39] = test: Cytotoxicity against mouse B16-F10 cells assessed as cell viability measured irradiated with 100 mW/cm^2, 660 nm light for 15 mins and measured after 48 hrs incubation by MTT assay; assay type: functional, cell-based; conditions: B16-F10, light or radiation study
[40] = Drug uptake in BALB/c mouse transplanted with mouse B16-F10 cells assessed as increase in fluorescence intensity at tumor site at 200 uM administered via intratumoural injection followed by irradiated with 660 nm laser measured for 3 to 21 mins by imaging assay; assay type: ADME; conditions: in vivo, other, time 3-21 min, route it(Intratumoral)
[41] = Induction of ROS generation assessed as superoxide anion production by measuring fold increase in fluorescent intensity of DHR123 using 526 nm pre-irradiated compound relative to non-illuminated condition; assay type: functional
[42] = Toxicity in BALB/c mouse transplanted with mouse B16-F10 cells assessed as kidney damage measured at 200 uM administered via intratumoural injection measured after 7 days by H and E staining based analysis; assay type: tissue-based; conditions: in vivo, other, 168 h, route it(Intratumoral), time 7 day
[43] = Toxicity in BALB/c mouse transplanted with mouse B16-F10 cells assessed as liver damage measured at 200 uM administered via intratumoural injection measured after 7 days by H and E staining based analysis; assay type: tissue-based; conditions: in vivo, other, 168 h, route it(Intratumoral), time 7 day
B16-F10 [44] = test: Induction of apoptosis in mouse B16-F10 cells assessed as early apoptotic cells at 10 uM measured after 8 hrs followed by irradiated (100 mW/cm^2) for 15 mins by annexin VFITC (AV)/propidium iodide (PI) based flow cytometry (reference value: 1.02%); assay type: functional
B16-F10 [45] = test: Induction of ROS generation in mouse B16-F10 cells assessed as increase in intracellular superoxide anion by measuring red fluorescence in nucleus at 10 uM measured co-incubated with dihydroethidium (DHE) followed by irradiated for 3 to 15 mins; assay type: functional, cell-based; conditions: time 3-15 min
B16-F10 [46] = test: Cytotoxicity against mouse B16-F10 cells assessed as cell death rate measured at 2 uM irradiated with 100 mW/cm^2, 660 nm light for 15 mins and measured after 48 hrs of incubation by MTT assay relative to control; assay type: functional

CN(C)c1ccc2c(c1)Sc1cc(N(C)C)ccc1N2C(=O)Nc1ccc(N(CCCl)CCCl)cc1
Activity [1]: 100% | Activity (B16-F10 [2]): Active; Compared With Nm And Mb + Irradiation Group Â?? Compound Showed More Pronounced Effect | Activity [3]: Non-toxic | Activity [4]: inactive | Activity [5]: 97% | Stability [6]: Stable | Activity (B16-F10 [7]): Active | Activity (B16-F10 [8]): Not active; Compound Showed Only Minimal Green Fluorescence | Activity [9]: inactive | Activity (B16-F10 [10]): Active; Fluorescence Intensity Of Dcfh Within Cells Exhibited A Positive Correlation With The Duration Of Light Exposure | Activity (B16-F10 [11]): Active | hemolysis at 2 h, up to 256 µM [12]: < 5% | fold change (FC) [13]: 7 | viability at 10 µM (B16-F10 [14]): 89.2% | Activity [15]: Non-toxic | Activity [16]: inactive | Activity (B16-F10 [17]): Non-toxic | Activity (B16-F10 [18]): Active; Compound Exhibit Strong Activity Relative To Mb+Light Group | Activity (B16-F10 [19]): 3.27% | Activity (B16-F10 [20]): Active; Effect Is Higher Compared With Nm And Mb Group | viability at 10 µM (B16-F10 [21]): 23.8% | Activity (B16-F10 [22]): Active | Activity (B16-F10 [23]): 0.65% | Activity (B16-F10 [24]): Non-toxic | Activity (B16-F10 [25]): 0.45% | Activity [26]: Non-toxic | t1/2 [27]: 11 min | Activity [28]: Active | Activity [29]: inactive | Activity (B16-F10 [30]): Active | fold change (FC) [31]: 69 | Activity [32]: Non-toxic | Activity (B16-F10 [33]): 30.9% | Activity (B16-F10 [34]): Active | Activity (B16-F10 [35]): Active; Almost Exclusively Exhibiting Red Fluorescence Signal | viability at 10 µM (B16-F10 [36]): 9.4% | Activity [37]: inactive | Activity (B16-F10 [38]): 6.85% | IC50 (B16-F10 [39]): 1350 nM | Drug uptake [40]: Active | fold change (FC) [41]: 113 | Activity [42]: Non-toxic | Activity [43]: Non-toxic | Activity (B16-F10 [44]): 44.8% | Activity (B16-F10 [45]): Active | Activity (B16-F10 [46]): 62.2%

CN(C)c1ccc2nc3ccc(=[N+](C)C)cc-3sc2c1
Activity (B16-F10 [20]): Active

CN(C)c1ccc2nc3ccc(N(C)C)cc3[s+]c2c1.[Cl-] [METHYLENE BLUE ANHYDROUS]
viability at 10 µM (B16-F10 [21]): 33.1% | Activity (B16-F10 [25]): 0.83% | Activity (B16-F10 [33]): 11.3% | viability at 10 µM (B16-F10 [36]): 22.5% | Activity (B16-F10 [44]): 54.8%
